Measured values reported in patent publication US5100663A, “Tyr-Gly compositions useful in increasing immune response” (priority 1990, dated 1992).
Like-named read-outs stand apart in the source and are kept apart here. Non-standard residues stand in square brackets, D forms with d. Residues, ends and D or L forms follow the SMILES beside them.

Legend:
[1] = test system: cell-mediated immune system response; assay: Amplifier (immunological) activity of HPLC fractions and their constituents; set-up: species or system human; conditions: for immunological activity as assayed by DH test: moieties in effluents of Example 5 process; for amplifier / immunological activity: HPLC fractions of human leukocyte dialysate and constituents
Text: Absorbance was monitored at […], 0.1 Absorbance Units=Full Scale. […] The first peak was lower than the second and third, in terms of absorbance units, and is believed to be an artifact of the system associated with the ethanol solvent or due to elution of salts. The second and third peaks varied in relative height from preparation to preparation.
Other moieties found present in effluents of this process were Gly-Gly, Ser-Phe, and Ala, along with possibly other amino acid residues as well.

[2] = test system: DH response to tetanus toxoid (TT); set-up: species or system human; conditions: in vivo
[3] = test system: gamma-interferon production in normal cells; assay: Antigen-induced production of gamma interferon; type: cell-based, human
Text: The LIF assay is described in Gottlieb et al., Modulation of Human T Cell Production, J. Immunology 132: 256-260 (Jan. 1984), at p. 257. Protocols for the other assays are believed to be known to those skilled in this art. A convenient reference for the gamma-interferon assay in Sinha et al., Bio/Technology 6:810 (1988), at pp. 814-15.
Preparations of 0.1 Lf /ml and 1.0 Lf /ml TT were used to determine the effect of Beta-1.11 (endogenous YG-material) on production of gamma-interferon in normal cells. As before, serial dilutions of Beta-1.11 were prepared from 46.5 pM to 91 fM.

[4] = test system: IL-2 receptors on T-helper cells; assay: T-helper cell IL-2 receptor expression assay; type: cell-based, human
[5] = test system: L1210 leukemia cells in BDF1 strain mice; assay: Mouse L1210 leukemia survival test; type: in vivo; conditions: 2 fg intradermally every third day (about 100 fg/kg); 5 mice per group; present-tense example
Experimental: Ten BDF1 strain mice are divided into two groups of 5. Each mouse is injected with 100 L1210 leukemia cells from ascitic fluid of DBA/2 host mice.
The mice in Group I (control) are thereafter given injections of 0.1 ml sterile saline every third day. The mice in Group II are thereafter given intradermal injections of 2 fg of synthetic YG of Example 20 in 0.1 ml of sterile saline, every third day. The mice weigh approximately 20 g each, so that 2 fg represents approximately 100 fg/kg of bodyweight.
The mice in Group I (control) are thereafter given injections of 0.1 ml sterile saline every third day. The mice in Group II are thereafter given intradermal injections of 2 fg of synthetic Tyr-D-Ala-Gly of Example 25 in 0.1 ml of sterile saline, every third day. The mice were approximately 20 g each, so that 2 fg represents approximately 100 fg/kg of bodyweight.

C[C@H](N)C(=O)O [Ala]
immunological activity as assayed by DH test [1]: None of these other moieties appeared to possess immunological activity

C[C@@H](NC(=O)[C@@H](N)Cc1ccc(O)cc1)C(=O)NCC(=O)O [Tyr-D-Ala-Gly, L-tyrosyl-D-alanyl-L-glycine] (H-Tyr-[dA]-Gly-OH)
amplifier effect in DH assay [2]: slightly better than that observed in Table 1 of Gottlieb U.S. Pat. No. 4,699,898
skin reaction without TT [2]: No reaction is observed
concentration at maximum gamma-interferon production ([3]; 1.0 Lf/ml TT): approximately 20 fM
potency relative to endogenous YG-material ([3]; gamma interferon assay, human sources not identical): an order of magnitude more potent
concentration giving the highest figure for high density of receptors [4]: approximately 2 fM
effect relative to endogenous material [4]: approximately an order of magnitude less in effect than endogenous YGG-material
increase of IL-2 receptors (high density maximum), factor [4]: approximately 1.5
mean survival longer than control group [5]: approximately 2.8 days

N[C@@H](Cc1ccc(O)cc1)C(=O)NCC(=O)NCC(=O)O [YGG, L-tyrosylglycylglycine] (H-Tyr-Gly-Gly-OH)
potency relative to corresponding endogenous amplifier materials Beta-1.11 and Beta-1.12 [2]: an order of magnitude less potent

N[C@@H](Cc1ccccc1)C(=O)O [phenylalanine]
amplifier / immunological activity [1]: found to lack intrinsic amplifier activity

N[C@@H](Cc1ccc(O)cc1)C(=O)NCC(=O)O [synthetic YG, L-tyrosylglycine]
potency relative to corresponding endogenous amplifier materials Beta-1.11 and Beta-1.12 [2]: an order of magnitude less potent
increase of IL-2 receptors (high density maximum), factor [4]: approximately 1.6
concentration giving the highest figure for high density of receptors ([4]; TT + serial dilutions): approximately 22 fM
mean survival longer than control group [5]: approximately 2.4 days

Gly-Gly
amplifier / immunological activity [1]: found to lack intrinsic amplifier activity
immunological activity as assayed by DH test [1]: None of these other moieties appeared to possess immunological activity

Tyr-Gly-Gly-Phe-Ile (YGGFI; printed: Tyr-Gly-Gly-Phe-Ile)
immunological activity in DH assay [2]: Significant immunological activity is not observed
molar concentration giving activity comparable to YG, relative to YG in Example 21 [2]: 8-10 orders of magnitude
